The target of the experiment is [35S]-TBPS binding, rat brain cortical membranes (GABAA receptor). The experiment is described as follows: Steroid inhibition of [35S]-TBPS binding. The conditions noted are these: 3 nM [35S]-TBPS, in the presence of 5 mM GABA, 90 min at room temp. Here is the method: Steroid Inhibition of TBPS Binding
[^35S]-t-Butylbicyclophosphorothionate (TBPS) binding assays using rat brain cortical membranes in the presence of 5 mM GABA has been described (Gee et al, J. Pharmacol. Exp. Ther. 1987, 241, 346-353; Hawkinson et al, Mol. Pharmacol. 1994, 46, 977-985; Lewin, A. H et al., Mol. Pharmacol. 1989, 35, 189-194).
Briefly, cortices are rapidly removed following decapitation of carbon dioxide-anesthetized Sprague-Dawley rats (200-250 g). The cortices are homogenized in 10 volumes of ice-cold 0.32 M sucrose using a glass/teflon homogenizer and centrifuged at 1500×g for 10 min at 4° C. The resultant supernatants are centrifuged at 10,000×g for 20 min at 4° C. to obtain the P2 pellets. The P2 pellets are resuspended in 200 mM NaCl/50 mM Na—K phosphate pH 7.4 buffer and centrifuged at 10,000×g for 10 min at 4° C. This washing procedure is repeated twice and the pellets are resuspended in 10 volumes of buffer. Aliquots ([…]) of the membrane suspensions are incubated with 3 nM [^35S]-TBPS and […] aliquots of test drug dissolved in dimethyl sulfoxide (DMSO) (final 0.5%) in the presence of 5 mM GABA. The incubation is brought to a final volume of 1.0 mL with buffer. Nonspecific binding is determined in the presence of […] and ranged from 15 to 25%. Following a 90 min incubation at room temp, the assays are terminated by filtration through glass fiber filters (Schleicher and Schuell No. 32) using a cell harvester (Brandel) and rinsed three times with ice-cold buffer. Filter bound radioactivity is measured by liquid scintillation spectrometry. Non-linear curve fitting of the overall data for each drug averaged for each concentration is done using Prism (GraphPad). […] The concentration of test compound producing 50% inhibition (IC50) of specific binding and the maximal extent of inhibition (Imax) are determined for the individual experiments with the same model used for the overall data and then the means±SEM.s of the individual experiments are calculated.
Various compounds are or can be screened to determine their potential as modulators of [^35S]-TBPS binding in vitro. These assays are or can be performed in accordance with the above
On to `COC[C@@]1(O)CC[C@H]2[C@H](CC[C@@H]3[C@@H]2CC[C@]2(C)[C@@H](C(=O)Nc4cncc(C#N)n4)CC[C@@H]32)C1` [Compound 95, (3R,5R,8R,9R,10S,13S,14S,17S)—N-(6-cyanopyrazin-2-yl)-3-hydroxy-3-(methoxymethyl)-13-methylhexadecahydro-1H-cyclopenta[a]phenanthrene-17-carboxamide], for which the IC50 is under 100 nM.
Regarding `C[C@@]1(O)CC[C@H]2[C@H](CC[C@@H]3[C@@H]2CC[C@]2(C)[C@@H](C(=O)Nc4ccccc4)CCC[C@@H]32)C1` [Compound 98, (1S,4aS,4bR,6aR,8R,10aS,10bR,12aS)-8-hydroxy-8,12a-dimethyl-N-phenyloctadecahydrochrysene-1-carboxamide], the IC50 was under 100 nM.
Then `CC[C@]12CC[C@@](C)(O)C[C@H]1CC[C@H]1[C@@H]3CCC[C@H](C(=O)Nc4ccccc4)[C@@]3(C)CC[C@@H]12` [Compound 99, (1S,4aS,4bS,6aR,8R,10aS,10bS,12aS)-10a-ethyl-8-hydroxy-8,12a-dimethyl-N-phenyloctadecahydrochrysene-1-carboxamide], with under 100 nM; and `CCOC[C@@]1(O)CC[C@@]2(CC)[C@H](CC[C@H]3[C@@H]4CCC[C@H](C(=O)Nc5cc(C)n(C)n5)[C@@]4(C)CC[C@@H]32)C1` [Compound 100, (4aS,4bS,6aR,8R,10aS,10bS,12aS)—N-(1,5-dimethyl-1H-pyrazol-3-yl)-8-(ethoxymethyl)-0a-ethyl-8-hydroxy-12a-methyloctadecahydrochrysene-1-carboxamide], with under 100 nM.
Then `CCOC[C@@]1(O)CC[C@@]2(CC)[C@H](CC[C@H]3[C@@H]4CCC[C@H](C(=O)Nc5cc(C)nn5C)[C@@]4(C)CC[C@@H]32)C1` [Compound 101, (1S,4aS,4bS,6aR,8R,10aS,10bS,12aS)—N-(1,3-dimethyl-1H-pyrazol-5-yl)-8-(ethoxymethyl)-10a-ethyl-8-hydroxy-12a-methyloctadecahydrochrysene-1-carboxamide], with under 100 nM.

By IC50 is commonly meant the point on the concentration scale where inhibition reaches its midpoint.

The values are drawn from patent US20230250129A1, “NEUROACTIVE STEROIDS AND COMPOSITIONS THEREOF” (Sage Therapeutics, Inc., priority 2020, published 2023).
